# Reference: PubChem BioAssay AID624061 (Southern Research Specialized Biocontainment Screening …, 2012)
# System: E. coli K5, bacterial growth
# Assay: K5 capsule formation inhibitors tested for E. coli K5 growth effect in follow-up (AID 624061)
# Conditions: stronger effect = lower value
compound,measurement,setting,value
CCOc1ccc(-c2cc(NC(=O)c3c(F)cccc3F)c(C(=O)O)s2)cc1,bacterial growth,at 100 µM,109%
same,bacterial growth,"growth, at 50 µM",106%
